Experimental data: patent US20260306502A1, “MITOCHONDRIAL UNCOUPLERS FOR TREATMENT OF METABOLIC DISEASES AND CANCER” (Mito Biopharma, LLC, priority 2022, published 2026)

How the values were obtained:
[1] = tested on: cultured mammalian cells, the NIH-3T3 cells, C2C12 cells, and other mammalian cell lines; assay: Mitochondrial membrane potential (MMP) assay, TMRE (or DilC1(5)) staining, related to OCR induction; assay type: cell-based; details: ratio of concentration leading to 10% MMP retention (90% MMP loss, TMRE) to minimal concentration leading to OCR increase
Method: Mitochondrial membrane potential assay was performed using the standard TMRE (tetramethylrhodamine ethyl ester) staining method with cultured mammalian cells, the NIH-3T3 cells, C2C12 cells, and other mammalian cell lines. Cells were seeded in 6-well plates and cultured in DMEM medium supplemented with 10% fetal bovine serum and 2 mM glutamine. Cells were allowed to grow to the logarithmic growth phase prior to experiments. The cells were treated with each individual compound at various concentrations for two hours, followed by staining with TMRE at a final concentration of 100 nM for 15 minutes. The cells were then washed once with PBS, and examined under fluorescence microscopy. Cells treated with various concentrations of niclosamide ethanolamine were used as a positive control.
In some examples, mitochondrial membrane potential was measured with DilC1(5) staining. Briefly, DilC1(5) was added to the cells to 50 nM final concentration and the cells were incubated at 37° C., 5% CO2, for 15 to 30 minutes. Cells were washed once by adding 2 mL of warm phosphate-buffered saline (PBS). Mitochondrial staining was determined by fluorescence microscopy with 633 nm excitation using standard filters for far-red emission.
Using the ratio between C10% TMRE (the concentration at which 10% MMP remains, i.e. 90% MMP is lost) and Cmin-OCR (the concentration at which minimal OCR induction is observed), we categorized the MMP-retaining uncouplers into two groups.

C2C12 cells = assay: Mitochondrial uncoupling activity by oxygen consumption rate (OCR) assay, Seahorse, in presence of oligomycin; assay type: cell-based, mouse; details: for minimal effective concentration: Mus musculus, C2C12, in the presence of oligomycin 2.5 μM, read-out: COCR-min: minimal concentration increasing OCR in the presence of oligomycin
Method: By definition, mitochondrial uncoupling is the decoupling of mitochondrial electron transport chain activity (mitochondrial oxidation) from ATP synthesis by mitochondrial ATP synthase. Technically, mitochondrial uncoupling activity is defined by the ability of a chemical compound to induce oxygen consumption of cells or isolated mitochondria in the presence of a mitochondrial ATP synthase inhibitor such as oligomycin. Accordingly, mitochondrial uncoupling activity was determined by oxygen consumption rate assay with a Seahorse XF96 or a Seahorse XF24 instrument following the vendor's instruction, using mouse myoblast C2C12 cells grown in a medium containing 10% fetal bovine serum. OCR was measured stepwise under the following conditions: first under normal growth conditions; then. OCR was measured after oligomycin was added to reach a final concentration of 2.5 μM); then OCR was measured after the compound was further added at varying concentrations. Finally, rotenone and antimycin A were added to confirm that the measurement was mitochondrial oxygen consumption (rotenone and […] mitochondrial electron transport chain inhibitors).
COCR-min the minimal concentration required for each compound to induce OCR in the presence of oligomycin, of disclosed compounds, was also determined by varying the final concentration of the compound added to the Seahorse OCR analysis experiment as described above (FIG. 2, varying testing compound concentration). Table 8 summarizes the mitochondrial uncoupling activity of disclosed compounds, as represented by COCR-min.

[2] = PO pharmacokinetic study, oral exposure (Example B3); assay type: in vivo; details: blood, po; for AUC at 24 h: 10 mg/kg gavage
Method: The blood concentration of the compound was then determined at 0 (pre-dosing), 5 min, 15 min, 30 min, 1 hr, 2 hr, 4 hr, 8 hr, 24 hr time points by LC-MS/MS analysis (See Tables 1 and 2, vide supra).

## COCCOCc1cc(C(F)(F)F)cc2sc(NC(=O)c3cc(Cl)cc(C)c3O)nc12 [drawing 342]
[1]
  C10%TMRE/Cmin-OCR: [drawing 342]

## Cc1cc(Cl)cc(C(=O)Nc2nc3c(CN4CCN(C)CC4)cc(C(F)(F)F)cc3s2)c1O [Example 78, 5-chloro-2-hydroxy-3-methyl-N-(4-((4-methylpiperazin-1-yl)methyl)-6-(trifluoromethyl)benzo[d]thiazol-2-yl)benzamide]
C2C12 cells
  minimal effective concentration: < 5 µM
[2]; 10 mg/kg
  AUC(0-t) at 24 h: 58400 ng·h/mL
[2]
  AUC at 24 h: 30000 to 60000 ng·h/mL

## O=C(Nc1nc2ccc(C(F)(F)F)cc2s1)c1cc(Cl)cc(CN2CCC2)c1O [Compound 27, 3-(azetidin-1-ylmethyl)-5-chloro-2-hydroxy-N-(6-(trifluoromethyl)benzo[d]thiazol-2-yl)benzamide]
C2C12 cells
  minimal effective concentration: < 5 µM
[2]
  AUC at 24 h: 30000 to 60000 ng·h/mL

## O=C(Nc1ccc(C(F)(F)F)nc1)c1cc(Cl)ccc1O
[1]
  C10%TMRE/Cmin-OCR: [drawing 354]

## O=C(Nc1nc2ccc(C(F)(F)F)cc2s1)c1cc(Cl)ccc1O [drawing 312]
[1]
  C10%TMRE/Cmin-OCR: [drawing 312]

## O=C(Nc1nc2ccc(C(F)(F)F)cc2s1)c1cc(Cl)ccc1O [drawing 315]
[1]
  C10%TMRE/Cmin-OCR: [drawing 315]

## COCc1cc(C(F)(F)F)cc2sc(NC(=O)c3cc(Cl)cc(C)c3O)nc12 [drawing 336]
[1]
  C10%TMRE/Cmin-OCR: [drawing 336]

## COCCOCc1cc(Cl)cc(C(=O)Nc2ccc(C(F)(F)F)cc2Cl)c1O [Compound 4, 5-chloro-N-(2-chloro-4-(trifluoromethyl)phenyl)-2-hydroxy-3-((2-methoxyethoxy)methyl)benzamide]
C2C12 cells
  minimal effective concentration: < 5 µM
[2]
  AUC at 24 h: 30000 to 60000 ng·h/mL

## COCCOCc1cc(C(F)(F)F)cc2sc(NC(=O)c3cc(Cl)cc(C)c3O)nc12 [drawing 339]
[1]
  C10%TMRE/Cmin-OCR: [drawing 339]

## COCCOCc1cc(Cl)cc(C(=O)Nc2nc3ccc(C(F)(F)F)cc3s2)c1O [Compound 2, 5-chloro-2-hydroxy-3-((2-methoxyethoxy)methyl)-N-(6-(trifluoromethyl)benzo[d]thiazol-2-yl)benzamide]
C2C12 cells
  minimal effective concentration: < 5 µM
[2]; 10 mg/kg
  AUC(0-t) at 24 h: 485000 ng·h/mL
[2]
  AUC at 24 h: > 120000 ng·h/mL

## O=C(Nc1nc2ccc(C(F)(F)F)cc2s1)c1cc(Cl)ccc1O [drawing 303]
[1]
  C10%TMRE/Cmin-OCR: [drawing 303]

## COCCN(C)Cc1cc(Cl)cc(C(=O)Nc2nc3ccc(C(F)(F)F)cc3s2)c1O [Compound 3, 5-chloro-2-hydroxy-3-(((2-methoxyethyl)(methyl)amino)methyl)-N-(6-(trifluoromethyl)benzo[d]thiazol-2-yl)benzamide]
C2C12 cells
  minimal effective concentration: < 5 µM
[2]
  AUC at 24 h: 10000 to 30000 ng·h/mL

## COC1CCN(Cc2cc(Cl)cc(C(=O)Nc3nc4ccc(C(F)(F)F)cc4s3)c2O)C1 (stereo not shown) [Compound 32, 5-chloro-2-hydroxy-3-((3-methoxypyrrolidin-1-yl)methyl)-N-(6-(trifluoromethyl)benzo[d]thiazol-2-yl)benzamide]
C2C12 cells
  minimal effective concentration: < 5 µM
[2]
  AUC at 24 h: 30000 to 60000 ng·h/mL

## O=C(Nc1nc2ccc(C(F)(F)F)cc2s1)c1cc(Cl)ccc1O [drawing 318]
[1]
  C10%TMRE/Cmin-OCR: [drawing 318]

## O=C(Nc1nc2ccc(C(F)(F)F)cc2s1)c1cc(Cl)ccc1O [drawing 306]
[1]
  C10%TMRE/Cmin-OCR: [drawing 306]

## Cl.O=C(Nc1nc2ccc(C(F)(F)F)cc2s1)c1cc(Cl)cc(CCN2CCOCC2)c1O [Compound 17, 5-chloro-2-hydroxy-3-(2-morpholinoethyl)-N-(6-(trifluoromethyl)benzo[d]thiazol-2-yl)benzamide]
C2C12 cells
  minimal effective concentration: < 5 µM
[2]
  AUC at 24 h: 10000 to 30000 ng·h/mL

## O=C(Nc1ccc(C(F)(F)F)cc1Cl)c1cc(Cl)ccc1O
[1]
  C10%TMRE/Cmin-OCR: [drawing 351]

## COCCOCc1cc(C(F)(F)F)cc2sc(NC(=O)c3cc(Cl)cc(CN4CCOCC4)c3O)nc12 [Compound 65, 5-chloro-2-hydroxy-N-(4-((2-methoxyethoxy)methyl)-6-(trifluoromethyl)benzo[d]thiazol-2-yl)-3-(morpholinomethyl)benzamide]
C2C12 cells
  minimal effective concentration: < 5 µM
[2]
  AUC at 24 h: 60000 to 120000 ng·h/mL

## COCCN(CCOC)Cc1cc(Cl)cc(C(=O)Nc2nc3c(COC)cc(C(F)(F)F)cc3s2)c1O [Compound 69, 3-((bis(2-methoxyethyl)amino)methyl)-5-chloro-2-hydroxy-N-(4-(methoxymethyl)-6-(trifluoromethyl)benzo[d]thiazol-2-yl)benzamide]
C2C12 cells
  minimal effective concentration: < 5 µM
C2C12 cells; in words
  effect on oxygen consumption rate (OCR): increase OCR in the presence of oligomycin
[2]
  AUC at 24 h: 10000 to 30000 ng·h/mL

## COCCOCc1cc(C(F)(F)F)cc2sc(NC(=O)c3cc(Cl)cc(CN4CCCCC4)c3O)nc12 [Compound 66, 5-chloro-2-hydroxy-N-(4-((2-methoxyethoxy)methyl)-6-(trifluoromethyl)benzo[d]thiazol-2-yl)-3-(piperidin-1-ylmethyl)benzamide]
C2C12 cells
  minimal effective concentration: < 5 µM
[2]
  AUC at 24 h: 30000 to 60000 ng·h/mL

## O=C(Nc1nc2ccc(C(F)(F)F)cc2s1)c1cc(Cl)cc(C2CCOC2)c1O (stereo not shown) [Compound 14, 5-chloro-2-hydroxy-3-(tetrahydrofuran-3-yl)-N-(6-(trifluoromethyl)benzo[d]thiazol-2-yl)benzamide]
C2C12 cells
  minimal effective concentration: < 5 µM
[2]
  AUC at 24 h: > 120000 ng·h/mL

## COc1cc(Cl)cc(C(=O)Nc2nc3ccc(C(F)(F)F)cc3s2)c1O [Example 97, 5-chloro-2-hydroxy-3-methoxy-N-(6-(trifluoromethyl)benzo[d]thiazol-2-yl)benzamide]
C2C12 cells
  minimal effective concentration: < 5 µM
[2]
  AUC at 24 h: 10000 to 30000 ng·h/mL

## COCc1cc(Cl)cc(C(=O)Nc2nc3ccc(C(F)(F)F)cc3s2)c1O [Compound 9, 5-chloro-2-hydroxy-3-(methoxymethyl)-N-(6-(trifluoromethyl)benzo[d]thiazol-2-yl)benzamide]
C2C12 cells
  minimal effective concentration: < 5 µM
[2]; 10 mg/kg
  AUC(0-t) at 24 h: 180000 ng·h/mL
[2]
  AUC at 24 h: > 120000 ng·h/mL

## O=C(Nc1nc2ccc(C(F)(F)F)cc2s1)c1cc(Cl)cc(CN2CCCCC2)c1O [Compound 26, 5-chloro-2-hydroxy-3-(piperidin-1-ylmethyl)-N-(6-(trifluoromethyl)benzo[d]thiazol-2-yl)benzamide]
C2C12 cells
  minimal effective concentration: < 5 µM
[2]
  AUC at 24 h: 10000 to 30000 ng·h/mL

## COCCOCc1cc(Cl)cc(C(=O)Nc2cnc(C(F)(F)F)cn2)c1O [Compound 6, 5-chloro-2-hydroxy-3-((2-methoxyethoxy)methyl)-N-(5-(trifluoromethyl)pyrazin-2-yl)benzamide]
C2C12 cells
  minimal effective concentration: 5 to 10 µM

## O=C(Nc1nc2ccc(C(F)(F)F)cc2s1)c1cc(Cl)cc(CN2CCCC2C(F)(F)F)c1O (stereo not shown) [Compound 56, 5-chloro-2-hydroxy-N-(6-(trifluoromethyl)benzo[d]thiazol-2-yl)-3-((2-(trifluoromethyl)pyrrolidin-1-yl)methyl)benzamide]
C2C12 cells
  minimal effective concentration: < 5 µM

## CO/N=C/c1cc(Cl)cc(C(=O)Nc2nc3ccc(C(F)(F)F)cc3s2)c1O [Compound 39, (E)-5-chloro-2-hydroxy-3-((methoxyimino)methyl)-N-(6-(trifluoromethyl)benzo[d]thiazol-2-yl)benzamide]
C2C12 cells
  minimal effective concentration: > 10 µM

## CN1CCN(Cc2cc(Cl)cc(C(=O)Nc3nc4ccc(C(F)(F)F)cc4s3)c2O)CC1 [Compound 28, 5-chloro-2-hydroxy-3-((4-methylpiperazin-1-yl)methyl)-N-(6-(trifluoromethyl)benzo[d]thiazol-2-yl)benzamide]
C2C12 cells
  minimal effective concentration: < 5 µM

## O=C(Nc1nc2ccc(C(F)(F)F)cc2s1)c1cc(Cl)ccc1O [Compound 31 in WO 2016/081599, reference compound]
[2]; 20 mg/kg
  AUC(0-t) at 24 h: ~2400 ng·h/mL

## O=C(Nc1nc2ccc(C(F)(F)F)cc2s1)c1cc(Cl)cc(CN2CCCC(F)C2)c1O (stereo not shown) [Example 58, 5-chloro-3-((3-fluoropiperidin-1-yl)methyl)-2-hydroxy-N-(6-(trifluoromethyl)benzo[d]thiazol-2-yl)benzamide]
C2C12 cells
  minimal effective concentration: < 5 µM

## Cc1cc(Cl)cc(C(=O)Nc2nc3c(COCc4ccccc4)cc(C(F)(F)F)cc3s2)c1O [Compound 84, N-(4-((benzyloxy)methyl)-6-(trifluoromethyl)benzo[d]thiazol-2-yl)-5-chloro-2-hydroxy-3-methylbenzamide]
C2C12 cells
  minimal effective concentration: < 5 µM
